Data as given in patent publication US11639350B2, “Heteroaryldihydropyrimidine derivatives and methods of treating hepatitis B infections” (Janssen Pharmaceutica NV, priority 2018, dated 2023).

Key:
[1] = system: HBV; test: HBV inhibitory activity: HBV DNA in the culture medium of HepG2.2.15 cells by q-PCR; type: cell-based; conditions: Hepatitis B virus, HepG2.2.15, 144 h, HepG2.2.15 cells, 6 days of compound treatment, HBV DNA in culture medium by q-PCR, highest concentration 10 μM; read-out: EC50
Method in brief: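 HepG2.2.15 cells in 2% FBS medium, 40,000 per well, treated 6 days with compound (medium refreshed once), eight 3-fold dilutions from 10 μM top. HBV DNA extracted from culture medium and quantified by q-PCR; EC50 averaged over repeats. Cytotoxicity run in parallel at 5,000 cells per well, top 100 μM, giving CC50.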

[2] = Cytotoxicity determination in HepG2.2.15 cells (CCK-8); type: cell-based; conditions: human, 6 days of compound treatment, CCK-8, highest concentration 100 μM
Method in brief: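 HepG2.2.15 cells seeded at 5,000 cells/well in 2% FBS medium, incubated overnight at 37° C., then treated 6 days with compounds (8 points, 3-fold dilutions, top 100 μM), medium refreshed once midway. CCK-8 added for 2.5 h; A450 read against 630 nm reference; CC50 calculated, averaged over repeats.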

Structure (SMILES)	EC50 [1]	CC50 at 6 days [2]
COC(=O)C1=C([C@H]2CC[C@H](S(=O)(=O)N3CC[C@@H](C(=O)O)C3)CC2)NC(c2nccs2)=NC1c1ccc(F)c(F)c1Cl (stereo in doubt) [Compound 293C, (trans)-1-((4-((R)-6-(2-Chloro-3,4-difluorophenyl)-5-(methoxycarbonyl)-2-(thiazol-2-yl)-3,6-dihydropyrimidin-4-yl)cyclohexyl)-sulfonyl)pyrrolidine-3-carboxylic Acid]	150 nM	85700 nM
CCOC(=O)C1=C([C@H]2CC[C@H](C(=O)O)CC2)NC(c2nccs2)=NC1c1ccc(F)c(F)c1Br (stereo partly drawn) [Compound 347B, (trans)-4-(6-(2-bromo-3,4-difluorophenyl)-5-(ethoxycarbonyl)-2-(thiazol-2-yl)-3,6-dihydropyrimidin-4-yl)cyclohexanecarboxylic Acid]	110 nM	31400 nM
CCOC(=O)C1=C([C@H]2CCC[C@H](C(=O)O)CC2)NC(c2nccs2)=NC1c1ccc(F)c(F)c1Cl (single isomer, unassigned) [Compound 302A, (trans)-4-(−6-(2-Chloro-3,4-difluorophenyl)-5-(ethoxycarbonyl)-2-(thiazol-2-yl)-3,6-dihydropyrimidin-4-yl)cycloheptanecarboxylic Acid]	24 nM	15200 nM
COC(=O)C1=C([C@H]2CC[C@H](C(=O)OC)CC2)NC(c2nc(C)cs2)=NC1c1ccc(F)cc1Br (single isomer, unassigned) [Compound 239X, (trans)-Methyl 4-(2-bromo-4-fluorophenyl)-6-(4-(methoxycarbonyl)cyclohexyl)-2-(4-methylthiazol-2-yl)-1,4-dihydropyrimidine-5-carboxylate]	149 nM	14800 nM
COC(=O)C1=C(C2CCN(S(=O)(=O)[C@H]3C[C@H](C(=O)O)C3)CC2)NC(c2nccs2)=NC1c1ccc(F)c(F)c1Br (relative stereo) [Compound 162, trans-3-((4-(−6-(2-Bromo-3,4-difluorophenyl)-5-(methoxycarbonyl)-2-(thiazol-2-yl)-3,6-dihydropyrimidin-4-yl)piperidin-1-yl)sulfonyl)cyclobutanecarboxylic Acid]	59 nM	34500 nM
COC(=O)C1=C(C2CCN(S(=O)(=O)C3COC3)CC2)NC(c2nccs2)=NC1c1ccc(F)cc1Cl (single isomer, unassigned) [Compound 110B, Methyl 4-(2-chloro-4-fluorophenyl)-6-(1-(oxetan-3-ylsulfonyl)-piperidin-4-yl)-2-(thiazol-2-yl)-1,4-dihydropyrimidine-5-carboxylate]	798 nM	> 10000 nM
CCOC(=O)C1=C(C2CCN(S(C)(=O)=O)CC2)NC(c2nccs2)=NC1c1cccc(F)c1Cl (stereo not drawn) [Compound 96B, Ethyl 4-(2-chloro-3-fluorophenyl)-6-(1-(methylsulfonyl)piperidin-4-yl)-2-(thiazol-2-yl)-1,4-dihydropyrimidine-5-carboxylate]	130 nM	21200 nM
COC(=O)C1=C(C2CCN(S(=O)(=O)[C@H]3C[C@H](C(=O)O)C3)CC2)NC(c2nccs2)=NC1c1ccc(F)cc1Cl (relative stereo) [Compound 285A, trans-3-((4-(6-(2-Chloro-4-fluorophenyl)-5-(methoxycarbonyl)-2-(thiazol-2-yl)-3,6-dihydropyrimidin-4-yl)piperidin-1-yl)sulfonyl)cyclobutane-carboxylic Acid]	24 nM	67200 nM
COC(=O)C1=C(C2CC(O)C2)NC(c2nccs2)=NC1c1ccc(F)cc1Cl (stereo not drawn) [Compound 295, Methyl 4-(2-chloro-4-fluorophenyl)-6-(3-hydroxycyclobutyl)-2-(thiazol-2-yl)-1,4-dihydropyrimidine-5-carboxylate]	215 nM	64200 nM
